Assay results as given in patent publication US11098046B2, “Macrocyclic compounds as TRK kinase inhibitors and uses thereof” (ANGEX PHARMACEUTICAL, INC., priority 2017, dated 2021).

Molecular target: TRK A (Homo sapiens (Human), UniProt P04629)
Experiment: HotSpot assay platform, radiometric kinase inhibition
Format: biochemical
Conditions: 100 μM ATP, class symbol
Experimental: The HotSpot assay platform was used to measure kinase/inhibitor interactions as described in Anastassiadis et al., Nat Biotechnol. 29:1039-45, 2011. In brief, for each reaction, kinase and substrate were mixed in a buffer containing 20 mM HEPES (pH 7.5), 10 mM MgCl2, 1 mM EGTA, 0.02% Brij35, 0.02 mg/mL BSA, 0.1 mM Na3VO4, 2 mM DTT, and 1% DMSO. Compounds were then added to each reaction mixture. After a 20-min incubation, ATP (Sigma-Aldrich) and [γ-33P] ATP (PerkinElmer) were added at a final total concentration of 100 μM. Reactions were carried out at room temperature for 2 h and spotted onto P81 ion exchange cellulose chromatography paper (Whatman). Filter paper was washed in 0.75% phosphoric acid to remove unincorporated ATP. The percent remaining kinase activity relative to a vehicle-containing (DMSO) kinase reaction was calculated for each kinase/inhibitor pair. Outliers were identified and removed as described in Anastassiadis et al., Nat Biotechnol. 29:1039-45, 2011. IC50 values were calculated using Prism 5 (GraphPad).

Chain of TRK A (P04629 33-796): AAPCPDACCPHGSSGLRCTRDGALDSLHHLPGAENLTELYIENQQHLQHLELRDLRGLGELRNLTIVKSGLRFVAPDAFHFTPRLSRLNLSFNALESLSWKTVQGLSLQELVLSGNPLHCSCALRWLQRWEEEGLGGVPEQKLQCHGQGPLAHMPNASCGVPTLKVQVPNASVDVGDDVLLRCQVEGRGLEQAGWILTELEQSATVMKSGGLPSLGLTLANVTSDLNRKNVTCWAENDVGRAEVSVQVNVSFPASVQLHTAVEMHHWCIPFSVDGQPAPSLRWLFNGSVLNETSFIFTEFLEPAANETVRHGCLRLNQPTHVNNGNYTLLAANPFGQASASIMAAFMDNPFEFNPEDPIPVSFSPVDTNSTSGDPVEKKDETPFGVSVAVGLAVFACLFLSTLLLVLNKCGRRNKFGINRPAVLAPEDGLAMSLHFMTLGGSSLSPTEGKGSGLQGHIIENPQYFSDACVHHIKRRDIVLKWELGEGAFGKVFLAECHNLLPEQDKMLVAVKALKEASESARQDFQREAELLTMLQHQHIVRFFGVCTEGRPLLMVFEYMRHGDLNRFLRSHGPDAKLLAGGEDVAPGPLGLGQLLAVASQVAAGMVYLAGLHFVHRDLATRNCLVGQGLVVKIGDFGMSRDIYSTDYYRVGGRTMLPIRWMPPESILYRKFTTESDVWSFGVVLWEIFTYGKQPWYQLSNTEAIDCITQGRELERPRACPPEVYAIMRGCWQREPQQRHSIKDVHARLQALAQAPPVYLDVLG

For CC1(C)CCc2ncc(F)cc2C2CCCN2c2ccn3ncc(c3n2)NC1=O (racemic) [Compound 8-8], the IC50 was 100 to 1000 nM.

C[C@@H]1CCc2ncc(F)cc2N2CCC[C@H]2c2ccn3ncc(c3n2)C(=O)N1 (single isomer, unassigned) [Compound 16-10] gave an IC50 greater than 1000 nM.

C[C@@H]1CCc2ncc(F)cc2N2CCC[C@@H]2c2ccn3ncc(c3n2)C(=O)N1 (single isomer, unassigned) [Compound 16-11] gave an IC50 greater than 1000 nM.

Molecule C=C1c2ncc(F)cc2[C@H]2[C@@H]3C[C@@H]3CN2c2ccn3ncc(c3n2)C(=O)N[C@@H]1C (single isomer, unassigned) [Compound 21-4] has an IC50 of less than 100 nM.

Work on C=C1c2ncc(F)cc2[C@@H]2[C@H]3C[C@H]3CN2c2ccn3ncc(c3n2)C(=O)N[C@@H]1C (single isomer, unassigned) [Compound 21-5] yielded an IC50 of 100 to 1000 nM.

For C[C@H]1CNC(=O)c2cnn3ccc(nc23)N2C[C@H]3C[C@H]3[C@@H]2c2cc(F)cn1c2=O (single isomer, unassigned) [Compound 23-3], the IC50 was less than 100 nM.

For C[C@H]1CNC(=O)c2cnn3ccc(nc23)N2C[C@@H]3C[C@@H]3[C@H]2c2cc(F)cn1c2=O (single isomer, unassigned) [Compound 23-4], the IC50 was greater than 1000 nM.

Work on C[C@@H]1CCc2ncc(F)cc2N2CCCN2c2ccn3ncc(c3n2)C(=O)N1 [Compound 1-8, (R,1^3E,1^4E)-3^5-fluoro-6-methyl-7-aza-1(5,3)-pyrazolo[1,5-a]pyrimidine-3(3,2)-pyridina-2(1,2)-pyrazalidinacyclooctaphan-8-one] yielded an IC50 of less than 100 nM.

With C[C@@H]1CCc2ccccc2N2CCCN2c2ccn3ncc(c3n2)C(=O)N1 [Compound 1-17, (R,1^3E,1^4E)-6-methyl-7-aza-1(5,3)-pyrazolo[1,5-a]pyrimidine-2(1,2)-pyrazolidina-3(1,2)-benzacyclooctaphan-8-one] the IC50 was less than 100 nM.

C[C@@H]1CCn2cc(F)cc(c2=O)N2CCCN2c2ccn3ncc(c3n2)C(=O)N1 [Compound 3-3] showed an IC50 greater than 1000 nM.

Molecule C[C@@H]1CCOc2ncc(F)cc2N2CCCN2c2ccn3ncc(c3n2)C(=O)N1 [Compound 4-3] has an IC50 of less than 100 nM.

With C[C@@H]1CCc2ncc(F)cc2N2CCC(=O)N2c2ccn3ncc(c3n2)C(=O)N1 [Compound 5-6] the IC50 was 100 to 1000 nM.

Molecule C[C@@H]1CCc2ncc(F)cc2N2CC3(CC3)CN2c2ccn3ncc(c3n2)C(=O)N1 [Compound 6-10] has an IC50 of less than 100 nM.

C[C@@H]1CCc2ncc(F)cc2[C@H]2CCCN2c2ccc3ncc(n3n2)C(=O)N1 [Compound 7-11] showed an IC50 of less than 100 nM.

Molecule C[C@@H]1CCc2ncc(F)cc2[C@@H]2CCCN2c2ccc3ncc(n3n2)C(=O)N1 [Compound 7-12] has an IC50 greater than 1000 nM.

With C[C@@H]1/C=C/c2ncc(F)cc2[C@H]2CCCN2c2ccn3ncc(c3n2)C(=O)N1 [Compound 9-7] the IC50 was less than 100 nM.

C[C@@H]1/C=C\c2ncc(F)cc2[C@H]2CCCN2c2ccn3ncc(c3n2)C(=O)N1 [Compound 10-5] showed an IC50 of less than 100 nM.

With C[C@@H]1/C=C\c2ncc(F)cc2[C@@H]2CCCN2c2ccn3ncc(c3n2)C(=O)N1 [Compound 10-6] the IC50 was 100 to 1000 nM.

Work on C=C1c2ncc(F)cc2[C@@H]2CCCN2c2ccn3ncc(c3n2)C(=O)N[C@@H]1C [Compound 11-5] yielded an IC50 greater than 1000 nM.

CC1c2ncc(F)cc2[C@H]2CCCN2c2ccn3ncc(c3n2)C(=O)N[C@@H]1C (some centres unmarked) [Compound 11-6] was tested, and the IC50 was less than 100 nM.

Molecule C[C@@H]1CCc2cnc(F)cc2C2CCCN2c2ccc3ncc(n3n2)C(=O)N1 (some centres unmarked) [Compound 12-12] has an IC50 greater than 1000 nM.

C[C@@H]1CCc2ncncc2[C@H]2CCCN2c2ccc3ncc(n3n2)C(=O)N1 [Compound 13-11] showed an IC50 of less than 100 nM.

C[C@@H]1CCc2ncncc2[C@@H]2CCCN2c2ccc3ncc(n3n2)C(=O)N1 [Compound 13-12] gave an IC50 of 100 to 1000 nM.

Work on C[C@@H]1CCn2cc(nn2)[C@H]2CCCN2c2ccn3ncc(c3n2)C(=O)N1 [Compound 14-6] yielded an IC50 greater than 1000 nM.

Work on C[C@@H]1CCn2cc(nn2)[C@@H]2CCCN2c2ccn3ncc(c3n2)C(=O)N1 [Compound 14-7] yielded an IC50 greater than 1000 nM.

In the case of C[C@@H]1CCn2nncc2[C@H]2CCCN2c2ccn3ncc(c3n2)C(=O)N1 [Compound 15-10], the IC50 is reported as greater than 1000 nM.

Work on C[C@@H]1CCc2ncc(F)cc2[C@H]2[C@@H]3[C@H](CN2c2ccn4ncc(c4n2)C(=O)N1)C3(C)C [Compound 17-12] yielded an IC50 greater than 1000 nM.

With C[C@@H]1CCc2ncc(F)cc2[C@@H]2[C@H]3[C@@H](CN2c2ccn4ncc(c4n2)C(=O)N1)C3(C)C [Compound 17-13] the IC50 was greater than 1000 nM.

In the case of C[C@@H]1CCc2ncc(F)cc2[C@H]2[C@@H]3C[C@@H]3CN2c2ccn3ncc(c3n2)C(=O)N1 [Compound 18-11], the IC50 is reported as less than 100 nM.

For C[C@@H]1CCc2ncc(F)cc2[C@@H]2[C@H]3C[C@H]3CN2c2ccn3ncc(c3n2)C(=O)N1 [Compound 18-12], the IC50 was greater than 1000 nM.

O=C1NC2(CCc3ncc(F)cc3[C@H]3[C@@H]4C[C@@H]4CN3c3ccn4ncc1c4n3)CC2 [Compound 19-5] showed an IC50 of less than 100 nM.

For O=C1NC2(CCc3ncc(F)cc3[C@@H]3[C@H]4C[C@H]4CN3c3ccn4ncc1c4n3)CC2 [Compound 19-6], the IC50 was greater than 1000 nM.

For O=C1N[C@H](C2CC2)CCc2ncc(F)cc2[C@H]2[C@@H]3C[C@@H]3CN2c2ccn3ncc1c3n2 [Compound 20-5], the IC50 was less than 100 nM.

Molecule O=C1N[C@H](C2CC2)CCc2ncc(F)cc2[C@@H]2[C@H]3C[C@H]3CN2c2ccn3ncc1c3n2 [Compound 20-6] has an IC50 greater than 1000 nM.

C[C@H]1CNC(=O)c2cnn3ccc(nc23)N2C[C@H]3C[C@H]3[C@@H]2c2cc(F)cnc2O1 [Compound 22-6] was tested, and the IC50 was less than 100 nM.

For C[C@H]1CNC(=O)c2cnn3ccc(nc23)N2C[C@@H]3C[C@@H]3[C@H]2c2cc(F)cnc2O1 [Compound 22-7], the IC50 was greater than 1000 nM.

For C[C@@H]1CCc2ncc(F)cc2[C@H]2[C@H]3[C@@H](CN2c2ccn4ncc(c4n2)C(=O)N1)C3(C)C [Compound 24-10], the IC50 was less than 100 nM.

For C[C@@H]1CCc2ncc(F)cc2[C@@H]2[C@@H]3[C@H](CN2c2ccn4ncc(c4n2)C(=O)N1)C3(C)C [Compound 24-11], the IC50 was greater than 1000 nM.
